Structures are written as SMILES.

We go through 1 compound from PMC12069643, “Structural insights into the selective recognition of RF-amide peptides by neuropeptide FF receptor 2” (EMBO Reports, 2025).

What all share (experiment): GloSensor forskolin-stimulated cAMP assay, NPFFR2 mutants
Common to all, as to type: cell-based
(cAMP levels reflect the balance of adenylyl cyclase and phosphodiesterase activity.)

The target in assay [1] is T1, NPFFR2 mutants (Homo sapiens, UniProt Q9Y5X5, D207A).
T1 construct: expressed in transfected cells; host or cells: HEK293T (pcDNA3.1 NPFFR2 mutants)
T1 sequence (Q9Y5X5 103-522 D207A): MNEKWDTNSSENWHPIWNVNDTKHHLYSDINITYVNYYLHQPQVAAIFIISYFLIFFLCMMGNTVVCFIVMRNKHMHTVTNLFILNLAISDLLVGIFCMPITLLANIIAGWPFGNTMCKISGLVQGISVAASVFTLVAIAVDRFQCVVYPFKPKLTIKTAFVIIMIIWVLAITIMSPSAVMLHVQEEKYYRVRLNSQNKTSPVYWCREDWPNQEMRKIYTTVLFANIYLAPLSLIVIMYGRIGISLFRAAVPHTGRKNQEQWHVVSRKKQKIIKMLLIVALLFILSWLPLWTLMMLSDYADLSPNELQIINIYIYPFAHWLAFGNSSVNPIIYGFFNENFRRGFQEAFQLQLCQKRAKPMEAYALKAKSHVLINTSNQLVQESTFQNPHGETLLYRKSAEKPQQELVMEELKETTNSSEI
As to conditions: NPFFR2 D1052.64A, HEK293T, three independent experiments. An excerpt:
(§1) Figure 2 Interaction of hNPSF with NPFFR2. (A) Residues participating in the interactions between hNPSF and NPFFR2 in the transmembrane (TM) binding pocket are shown as sticks. Dashed lines indicate polar interactions and hydrogen bonds between residues. Zoomed-in views highlighting interactions of the C-terminal segment (residues −1 to −4, PQRF), middle segment (residues −5 to −8, FLFQ), and the N-terminal segment (residues −9 to −11, SQA) of hNPSF are enclosed in red, blue, and yellow boxes, respectively. (B) NPFFR2 residues interacting with hNPSF were mutated to alanine, and the impact of each mutation on the EC50 value (ΔpEC50) was investigated using a forskolin-stimulated cAMP assay, after confirming surface expression of each mutant by an ELISA-based surface expression assay (Appendix Fig. S5). Three independent experiments (with technical triplicates) were conducted for each mutant. The bar graphs represent the mean of ΔpEC50 values from each experiment, with error bars indicating SEM. Statistical analyses were performed using ordinary one-way ANOVA followed by Dunnett’s test, comparing to the wild-type response. ns (not significant, P > 0.05); *P < 0.05; **P < 0.01; ***P < 0.001. Source data are available online for this figure.
(§2) HEK293T cells were seeded at a density of 6 × 10^5 cells per well in a six-well cell culture plate (SPL) and co-transfected with expression plasmids encoding GloSensor™ and each NPFFR construct, using 1 µg to 4 µg of DNA per well according to the Lipofectamine™ 2000 Transfection Reagent (Invitrogen) protocol. After 48 h of incubation under standard conditions (37 °C, 5% CO2), the cells were detached using Accutase solution (Sigma-Aldrich) and washed with PBS. The cells were then pelleted by centrifugation, resuspended in CO2-independent medium (Gibco) supplemented with Firefly D-Luciferin (0.5 mg/ml, NanoLight), and distributed into a 96-well white plate (SPL). After a 2-hour incubation, serially diluted ligands and 0.5 μM forskolin were added to each well to detect ligand-induced signaling. Luminescence signals were measured using a Mithras LB940 instrument (Berthold) with a measurement time of 1 s per well.
(§3) Data from the GloSensor^TM cAMP signaling assays were analyzed using GraphPad Prism with a three-parameter logistic model to fit concentration-response curves for both wild-type (WT) and mutant receptors. Mutant expression levels and DNA amounts were adjusted to match WT conditions. ΔpEC50 values were calculated by subtracting the log EC50 of the WT receptor from that of each mutant. Results are presented as mean ± SEM from three independent biological replicates, each performed in duplicate or more. Error bars represent the SEM. Statistical significance was assessed using one-way ANOVA, followed by Dunnett’s tests comparisons to the WT receptor. Significance levels were reported as follows: ns (not significant, P > 0.05); *P < 0.05; **P < 0.01; ***P < 0.001.
(§4) Appendix Figure S5. GloSensorTM cAMP assays of mutants and wild-type NPFFR2.
(§5) The dose-response of cAMP assay data for each mutant (red) presented in Fig. 2B are compared against the wild-type NPFFR2 (blue). Each experiment was conducted after adjusting the mutant's expression level to that of the wild-type NPFFR2 (Appendix Fig. S3), and pcDNA3.1 was used to match the total amount of DNA transfected. Data points represent mean values from three independent experiments (each with technical triplicate), with error bars indicating SEM. Raw data were normalized to the vehicle -treated (0%) and 0.5 μM forskolin-treated (100%) responses.
(§6) (% of forskolin stimulation) […]

The target in assay [2] is T2, NPFFR2 mutants (Homo sapiens, UniProt Q9Y5X5, E289A).
T2 construct: expressed in transfected cells; host or cells: HEK293T (pcDNA3.1 NPFFR2 mutants)
T2 sequence (Q9Y5X5 103-522 E289A): as the sequence (Q9Y5X5 103-522 D207A) above, with A105D, E187A counted along it
The following applies: NPFFR2 E187ECL2A, HEK293T, three independent experiments.
Excerpt: as §1, §2, §3, §4, §5, §6

Assay [3] deals with T3, NPFFR2 mutants (Homo sapiens, UniProt Q9Y5X5, T322A).
T3 construct: expressed in transfected cells; host or cells: HEK293T (pcDNA3.1 NPFFR2 mutants)
T3 sequence (Q9Y5X5 103-522 T322A): as the sequence (Q9Y5X5 103-522 D207A) above, with A105D, T220A counted along it
As to conditions: NPFFR2 T2205.39A, HEK293T, three independent experiments.
Excerpt: as §1, §2, §3, §4, §5, §6

The target in assay [4] is T4, NPFFR2 mutants (Homo sapiens, UniProt Q9Y5X5, V231A).
T4 construct: expressed in transfected cells; host or cells: HEK293T (pcDNA3.1 NPFFR2 mutants)
T4 sequence (Q9Y5X5 103-522 V231A): as the sequence (Q9Y5X5 103-522 D207A) above, with A105D, V129A counted along it
The following applies: NPFFR2 V1293.36A, HEK293T, three independent experiments.
Excerpt: as §1, §2, §3, §4, §5, §6

The target in assay [5] is T5, NPFFR2 mutants (Homo sapiens, UniProt Q9Y5X5, W393A).
T5 construct: expressed in transfected cells; host or cells: HEK293T (pcDNA3.1 NPFFR2 mutants)
T5 sequence (Q9Y5X5 103-522 W393A): as the sequence (Q9Y5X5 103-522 D207A) above, with A105D, W291A counted along it
As to conditions: NPFFR2 W2916.52A, HEK293T, three independent experiments.
Excerpt: as §1, §2, §3, §4, §5, §6

The target in assay [6] is T6, NPFFR2 mutants (Homo sapiens, UniProt Q9Y5X5, Y417A).
T6 construct: expressed in transfected cells; host or cells: HEK293T (pcDNA3.1 NPFFR2 mutants)
T6 sequence (Q9Y5X5 103-522 Y417A): as the sequence (Q9Y5X5 103-522 D207A) above, with A105D, Y315A counted along it
As to conditions: NPFFR2 Y3157.35A, HEK293T, three independent experiments.
Excerpt: as §1, §2, §3, §4, §5, §6

On to `CC(C)C[C@H](NC(=O)[C@H](Cc1ccccc1)NC(=O)[C@H](C)NC(=O)[C@H](CCC(N)=O)NC(=O)[C@@H](N)CO)C(=O)N[C@@H](Cc1ccccc1)C(=O)N[C@@H](CCC(N)=O)C(=O)N1CCC[C@H]1C(=O)N[C@@H](CCC(N)=O)C(=O)N[C@@H](CCCNC(=N)N)C(=O)N[C@@H](Cc1ccccc1)C(N)=O` [hNPSF], for which the Emax – broadly, the size of the effect at its maximum, as opposed to the concentration needed – at NPFFR2 mutants [1] (HEK-293T) was 69 ± 4%; at NPFFR2 mutants [2] (HEK-293T), 75 ± 3%; on NPFFR2 mutants [3] (HEK-293T) it was 70 ± 5%; at NPFFR2 mutants [4] (HEK-293T), 79 ± 3%; at NPFFR2 mutants [5] (HEK-293T), 80 ± 4%; at NPFFR2 mutants [6] (HEK-293T) it was 77 ± 2%. The EC50 (in general, the concentration at which the effect is half-maximal) at NPFFR2 mutants [1] was 12.6 nM; at NPFFR2 mutants [2], 1 nM; on NPFFR2 mutants [3] it was 631 nM; at NPFFR2 mutants [4] it was 126 nM; at NPFFR2 mutants [5], 79.4 nM; on NPFFR2 mutants [6] it was 126 nM.
